This assay relates to bovine satellite cells (BSCs). As to the kind of experiment: Short-term growth analysis (3 and 4 days, dsDNA quantitation, brightfield imaging). Particulars: for BSC proliferation compared to B8 media alone: supplement in B8, range of concentrations, growth over four days; for FGF-2 concentration to which medium could be lowered without significantly affecting growth: vs 40 ng/mL control. Format: cell-based. Here is the method:
Homemade B8 medium was prepared using store-bought components and a previously described formulation and method of preparation. See, Kuo, H. H. et al. Negligible-Cost and Weekend-Free Chemically Defined Human iPSC Culture. Stem Cell Reports 14, 256-270. Table 1 includes the formulation. Additionally, HiDef-B8 medium aliquots were generously provided by Defined Bioscience (Defined Bioscience #LSS-201, San Diego, CA, USA) and added DMEM/F12 with 1% antibiotic/antimycotic. Short term BSC growth (3 and 4 days) was analyzed for mixtures of serum-containing and serum-free media, as well as for pure B8 media with reduced growth factor concentrations and/or with the addition of various media supplements (Table 2). Briefly, BSCs were thawed (passage number <2) and plated in BSC-GM on 96-well tissue-culture plastic plates for each timepoint at a density of 2,500 cells/cm^2 with 0.25 ug/cm^2 iMatrix recombinant laminin-511. After 24 hours, BSC-GM was removed, cells were washed 1× with DPBS, and new media (e.g., B8+/−supplementation) was added. A list of supplements and concentrations can be found in Table 2. Media was changed on day 3, and on days 3 and 4 cells were imaged, media was aspirated from appropriate plates, and plates were frozen at −80° C. Once all timepoints were frozen, cell number was analyzed using a FluoReporter dsDNA quantitation kit (ThermoFisher #F2962) according to the recommended protocol and with fluorescence readings performed on a Synergy H1 microplate reader (BioTek Instruments, Winooski, VT, USA) using excitation and emission filters centered at 360 and 490 nm, respectively. Cell number at 3 and 4 days was analyzed relative to pure B8 or HiDef media.

Entries after “also recorded” stand apart in the source; their conditions may differ.

As to `COc1cc(/C=C/C(=O)CC(=O)/C=C/c2ccc(O)c(OC)c2)ccc1O` [curcumin, reference compound], the “BSC proliferation compared to B8 media alone” value is reported as “significantly improved”.
The same measure, in the same setting: to `NCCO` [ethanolamine, reference compound] belongs “inconsequential”; to `CCCCC/C=C\C/C=C\CCCCCCCC(=O)O` [linoleic acid, reference compound], “significantly improved”.
On to `CCCCCCCC/C=C\CCCCCCCC(=O)O` [oleic acid, reference compound], for which the “BSC proliferation compared to B8 media alone” value is “significantly improved”. Besides, for the setting “tested alone in B8, day 4”, the “growth vs B8 control on day 4” value is on record as “no significant difference”.
On to “FGF-2: fibroblast growth factor, component of B8 and Beefy-9, baseline 40 ng/mL”, for which the “effect of complete removal of FGF-2 on cell growth and morphology” value (0 ng/mL FGF-2 in the media) is given as “significantly affects cell morphology; also recorded: significantly affected”. Besides, the “effect of FGF-2 reduction on cell morphology” value (Beefy-9 with 5 ng/mL FGF-2, three days) is on record as “did not affect morphology”. The “FGF-2 concentration to which medium could be lowered without significantly affecting growth” value is on record as 5 ng/mL (in B8, four days) and 1.25 ng/mL (in Beefy-9, four days).
“IL-6: interleukin-6, media supplement (BioRad PBP021)”: the “BSC proliferation compared to B8 media alone” value is given as “significantly improved”.
Regarding “hepatocyte growth factor: hepatocyte growth factor, media supplement tested in B8”, the “BSC proliferation compared to B8 media alone” value was “inconsequential”.
